The values below come from patent US7160903B2, “Sulfonylaminocarboxylic acids” (Sanofi-Aventis Deutschland GmbH, priority 1997, dated 2007).

The target in one series is T1, stromelysin (MMP-3) (Homo sapiens, UniProt P08254).
T1 construct: enzymatic activity of the catalytic domains of human stromelysin and of neutrophil collagenase; made in house
In words: Enzymatic activity of the catalytic domain of human stromelysin (fluorogenic substrate). The series is classed as biochemical. Conditions: pH=6.5, 15 min preincubation, fluorescence 328 nm (ex)/393 nm (em). On the procedure: (§1) Preparation and determination of the enzymatic activity of the catalytic domains of human stromelysin and of neutrophil collagenase:
(§2) The enzymes stromelysin (MMP-3) and neutrophil collagenase (MMP-8) were prepared according to Ye et al. (Biochemistry; 31 (1992) pages 11231–11235). To measure the enzyme activity or the enzyme inhibitor action, 70 μl of buffer solution and 10 μl of enzyme solution are incubated for 15 min with 10 μl of a 10% strength (v/v) aqueous dimethyl sulfoxide solution, which optionally contains the enzyme inhibitor. After addition of 10 μl of a 10% strength (v/v) aqueous dimethyl sulfoxide solution which contains 1 mmol/L of the substrate, the enzyme reaction is monitored by fluorescence spectroscopy (328 nm (ex)/393 nm(em)). The enzyme activity is shown as the extinction increase/min. The IC50 values listed in Table 2 are determined as those inhibitor concentrations which in each case led to a 50% inhibition of the enzyme.
(§3) The buffer solution contains 0.05% Brij (Sigma, Deisenhofen, Germany) and also 0.1 mol/L Tris/HCl, 0.1 mol/L NaCl, 0.01 mol/L CaCl2 and 0.1 mol/L piperazine-N,N′-bis[2-ethanesulfonic acid] (pH=6.5). The enzyme solution contains 5 μg/ml of one of the enzyme domains prepared according to Ye et al. The substrate solution contains 1 mmol/L of the fluorogenic substrate (7-methoxycoumarin-4-yl)acetyl-Pro-Leu-Gly-Leu-3-(2′,4′-dinitrophenyl)-L-2,3-diaminopropionyl-Ala-Arg-NH2 (Bachem, Heidelberg, Germany).

Series [1] addresses T2, neutrophil collagenase (MMP-8) (Homo sapiens, UniProt P22894).
T2 construct: enzymatic activity of the catalytic domains of human stromelysin and of neutrophil collagenase; made in house
In words: Enzymatic activity of the catalytic domain of neutrophil collagenase (fluorogenic substrate). Type of series: biochemical. To be noted: pH=6.5, 15 min preincubation, fluorescence 328 nm (ex)/393 nm (em), read-out: Neutr. collagenase IC50. The protocol: as §1, §2, §3

T2 sequence (P22894 100-262 limits assumed): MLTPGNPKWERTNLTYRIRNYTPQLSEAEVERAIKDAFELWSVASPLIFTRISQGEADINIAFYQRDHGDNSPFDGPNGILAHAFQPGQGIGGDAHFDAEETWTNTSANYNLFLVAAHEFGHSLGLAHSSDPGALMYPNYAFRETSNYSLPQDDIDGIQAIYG
T1 sequence (P08254 100-272 limits assumed): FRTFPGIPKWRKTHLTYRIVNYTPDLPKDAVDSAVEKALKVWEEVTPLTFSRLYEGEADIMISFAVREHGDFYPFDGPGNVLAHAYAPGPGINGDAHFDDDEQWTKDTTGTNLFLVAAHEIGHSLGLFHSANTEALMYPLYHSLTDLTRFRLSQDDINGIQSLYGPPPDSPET

As for `COc1ccc(CC(NS(=O)(=O)c2ccc(-c3ccc(N(C)C)cc3)cc2)C(=O)O)cc1OC` (racemic) [Example 65], the melting point (commonly the temperature, or range, at which the solid turns liquid) is > 230 °C (dec.). For the same molecule, at stromelysin (MMP-3), the IC50 (commonly the concentration at which inhibition is half-maximal) is 0.1 µM. Besides, the IC50 in series [1] turned out to be 0.003 µM.

`Br.CN(C)c1ccc(-c2ccc(S(=O)(=O)N[C@@H](CC(=O)O)C(=O)O)cc2)cc1` [Example 40] displayed a melting point of 121 to 127 °C. The molecule also gave an IC50 against stromelysin (MMP-3) of 0.07 µM. Moreover, in series [1], the IC50 was determined as 0.002 µM.

For `O=C(O)[C@H](Cc1cn(S(=O)(=O)c2ccc(Oc3ccccc3)cc2)cn1)NS(=O)(=O)c1ccc(Oc2ccccc2)cc1` [Example 31], the melting point is 120 to 122 °C. At stromelysin (MMP-3), it took 1 µM to reach half-maximal inhibition (IC50). Besides, in series [1], the IC50 was 0.05 µM.

In the case of `O=C(O)CC[C@H](NS(=O)(=O)c1ccc(-c2ccc(N3CCCC3)cc2)cc1)C(=O)O` [Example 77], the melting point was > 220 °C (dec.). For the same molecule, half-maximal inhibition against stromelysin (MMP-3) (IC50) was put at 0.004 µM. Moreover, the IC50 in series [1] came to 0.004 µM.

`O=C(CC[C@H](NS(=O)(=O)c1ccc(-c2ccccc2)cc1)C(=O)O)Nc1ccc([N+](=O)[O-])cc1` [Example 75] registered a melting point of 232 to 233 °C. Besides, it took 0.3 µM to reach half-maximal inhibition against stromelysin (MMP-3) (IC50). For the same molecule, the IC50 in series [1] was 0.02 µM.

The molecule `COC(=O)c1ccc(NC(=O)CC[C@H](NS(=O)(=O)c2ccc(-c3ccccc3)cc2)C(=O)O)cc1` [Example 84] displayed a melting point of 245 to 245.5 °C. Besides, the IC50 against stromelysin (MMP-3) was determined as 5 µM. In series [1], the IC50 worked out at 0.002 µM.

`CN(C)c1ccc(-c2ccc(S(=O)(=O)N[C@@H](CCC(=O)Nc3ccccc3)C(=O)O)cc2)cc1` [Example 81]: the melting point was 240.5 to 241.5 °C (dec.). Also, the IC50 against stromelysin (MMP-3) came to 0.01 µM. The IC50 in series [1] was determined as 0.002 µM.

Turning to `O=C(O)C1CCCCN1S(=O)(=O)c1ccc(-n2nccn2)cc1` (racemic) [Example 63], the melting point is 195 to 196 °C. Also, at stromelysin (MMP-3), 3 µM corresponded to half-maximal inhibition (IC50). In series [1], the IC50 worked out at 0.6 µM.

`O=C(CC[C@H](NS(=O)(=O)c1ccc(-c2ccccc2)cc1)C(=O)O)N[C@@H](Cc1ccccc1)C(=O)O` [Example 92] registered a melting point of 123.5 to 124.5 °C. Further, 0.03 µM corresponded to half-maximal inhibition on stromelysin (MMP-3) (IC50). The IC50 in series [1] came to 0.004 µM.

`O=C(O)[C@@H](Cc1c[nH]c2ccccc12)NS(=O)(=O)c1ccc(-c2ccc(N3CCCC3)cc2)cc1` [Example 71]: the melting point is > 145 °C (dec.). The molecule also returned a half-inhibitory concentration (IC50) against stromelysin (MMP-3) of 0.01 µM. The IC50 in series [1] was found to be 0.002 µM.

For `CNC(=O)c1ccc(NC(=O)CC[C@H](NS(=O)(=O)c2ccc(-c3ccccc3)cc2)C(=O)O)cc1` [Example 83], the melting point fell in the range of 250 to 250.5 °C. In addition, the IC50 at stromelysin (MMP-3) is 1 µM. Further, the IC50 in series [1] was 0.02 µM.

`N#Cc1ccc(NC(=O)CC[C@H](NS(=O)(=O)c2ccc(-c3ccccc3)cc2)C(=O)O)cc1` [Example 86]: the melting point turned out to be 220 °C. The molecule also returned an IC50 against stromelysin (MMP-3) of 0.3 µM. In addition, in series [1], the IC50 came out at 0.01 µM.

Molecule `CSCC[C@H](NC(=O)CC[C@H](NS(=O)(=O)c1ccc(-c2ccccc2)cc1)C(=O)O)C(=O)O` [Example 58] showed a melting point of 159 to 161 °C. Besides, the IC50 on stromelysin (MMP-3) is 0.04 µM. Besides, in series [1], the IC50 came out at 0.006 µM.

For `O=C(O)[C@@H](NS(=O)(=O)c1ccc(Oc2ccccc2)cc1)[C@@H](O)c1ccc2c(c1)OCO2` (racemic) [Example 35], the melting point turned out to be 176 °C. This molecule also gave an IC50 at stromelysin (MMP-3) of 0.1 µM. Moreover, in series [1], the half-inhibitory concentration (IC50) turned out to be 0.01 µM.

Consider `O=C(O)[C@@H](CCO)NS(=O)(=O)c1ccc(Oc2ccccc2)cc1` (racemic) [Example 1, N-(Phenoxybenzenesulfonyl) homoserine], for which the melting point came to 134 °C. This molecule yielded an IC50 against stromelysin (MMP-3) of 0.4 µM. In series [1], the IC50 worked out at 0.01 µM.

Take `CC(C)C[C@H](NC(=O)CC[C@H](NS(=O)(=O)c1ccc(-c2ccccc2)cc1)C(=O)O)C(=O)O` [Example 56]: the melting point was 93 to 95 °C. Besides, the IC50 on stromelysin (MMP-3) stood at 0.03 µM. In series [1], the IC50 stood at 0.005 µM.

`CSCC[C@H](NC(=O)CC[C@H](NS(=O)(=O)c1ccc(-c2ccc(N(C)C)cc2)cc1)C(=O)O)C(=O)O` [Example 62]: the melting point was 121 °C. On stromelysin (MMP-3), this molecule had an IC50 of 0.007 µM. Also, the IC50 in series [1] is 0.002 µM.

Regarding `O=C(O)CC[C@H](NS(=O)(=O)c1ccc(-c2ccccc2)cc1)C(=O)O` [Example 60], the melting point is 145 to 146 °C. This molecule also displayed an IC50 against stromelysin (MMP-3) of 0.6 µM. Also, the IC50 in series [1] was 0.02 µM.

With `CC(=O)Nc1ccc(NC(=O)CC[C@H](NS(=O)(=O)c2ccc(-c3ccccc3)cc2)C(=O)O)cc1` [Example 99], the melting point was > 230 °C (dec.). Also, on stromelysin (MMP-3), the IC50 turned out to be 0.7 µM. The IC50 in series [1] is 0.05 µM.

As to `O=C(O)CC[C@@H](NS(=O)(=O)c1ccc(-c2ccccc2)cc1)C(=O)O` [Example 61], the melting point is 155 to 158 °C. The molecule further had an IC50 at stromelysin (MMP-3) of 0.4 µM. Moreover, in series [1], the IC50 is 0.02 µM.

On to `O=C(O)[C@@H](Cc1cccs1)NS(=O)(=O)c1ccc(-c2ccc(Cl)cc2)cc1` [Example 27], for which the melting point was > 200 °C (dec.). This molecule also had a half-maximal inhibitory concentration (IC50) at stromelysin (MMP-3) of 0.2 µM. Further, the IC50 in series [1] worked out at 0.01 µM.

Turning to `O=C(O)C(Cc1c[nH]c2ccc(F)cc12)NS(=O)(=O)c1ccc(-c2ccc(N3CCCC3)cc2)cc1` (racemic) [Example 78], the melting point was > 230 °C (dec.). Besides, the IC50 at stromelysin (MMP-3) was 0.02 µM. In addition, in series [1], the IC50 came out at 0.002 µM.

On to `O=C(O)[C@@H](Cc1c[nH]c2ccccc12)NS(=O)(=O)c1ccc(-n2nccn2)cc1` [Example 68], for which the melting point is 131 to 134 °C. For the same molecule, it took 0.4 µM to reach half-maximal inhibition at stromelysin (MMP-3) (IC50). In addition, the IC50 in series [1] is 0.1 µM.

Consider `CSCC[C@@H](NS(=O)(=O)c1ccc(-c2ccc(N(C)C)cc2)cc1)C(=O)O` [Example 11], for which the melting point fell in the range of 180 to 186 °C. The same molecule had a half-inhibitory concentration (IC50) on stromelysin (MMP-3) of 0.09 µM. For the same molecule, the IC50 in series [1] was determined as 0.003 µM.

Take `O=C(CC[C@H](NS(=O)(=O)c1ccc(-c2ccccc2)cc1)C(=O)O)Nc1ccc(F)cc1` [Example 91]: the melting point is > 258 °C (dec.). For the same molecule, on stromelysin (MMP-3), the IC50 was determined as 0.3 µM. The IC50 in series [1] turned out to be 0.01 µM.

As to `O=C(O)[C@H](CO)NS(=O)(=O)c1ccc(Oc2ccccc2)cc1` [Example 8], the melting point lay in the range of 202 to 203 °C. Further, the 50% inhibitory concentration (IC50) at stromelysin (MMP-3) came to 0.3 µM. For the same molecule, the IC50 in series [1] worked out at 0.01 µM.

In turn, `O=C(O)C1CCCCN1S(=O)(=O)c1ccc(-c2ccccc2)cc1` (racemic) [Example 55] came in with a melting point of 174.5 to 175.5 °C. Further, on stromelysin (MMP-3), the IC50 was 0.8 µM. Moreover, the IC50 in series [1] is 0.04 µM.

For `O=C(CC[C@H](NS(=O)(=O)c1ccc(-c2ccccc2)cc1)C(=O)O)Nc1ccc(F)c(Cl)c1` [Example 96], the melting point is > 245 °C (dec.). Moreover, at stromelysin (MMP-3), the midpoint of inhibition, the IC50, lay at 0.6 µM. The IC50 in series [1] came to 0.02 µM.

As to `O=C(O)[C@H](CCc1nc2ccccc2[nH]1)NS(=O)(=O)c1ccc(-c2ccccc2)cc1` [Example 93], the melting point is > 250 °C (dec.). This molecule registered an IC50 against stromelysin (MMP-3) of 0.2 µM. Further, in series [1], the concentration for half-maximal inhibition (IC50) worked out at 0.02 µM.

Turning to `O=C(CC[C@H](NS(=O)(=O)c1ccc(-c2ccc(N3CCCC3)cc2)cc1)C(=O)O)Nc1ccc(F)cc1` [Example 90], the melting point is > 245 °C (dec.). The same molecule showed an IC50 against stromelysin (MMP-3) of 0.01 µM. Besides, the IC50 in series [1] is 0.002 µM.
